Laboratory results from US8178658B2 (Dow AgroSciences, LLC, priority 2008, dated 2012).

How the values were obtained:
[1] = test system: beet armyworm (BAW; Spodoptera exigua: Lepidoptera); assay: 128-well diet tray assay on beet armyworm (BAW 50); format: in vivo; conditions: for BAW 50 ug/cm2: 128-well diet tray assay, 50 μg/cm^2 of test compound on diet, second instar BAW larvae, mortality class
Method in brief: (§1)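 Two diet-incorporation-style surface tests were run. Eggs infested treated diet (12 μg/well) in plates incubated dark at 29° C, with mortality taken on day 6 from six replicates. Separately, second-instar larvae fed on treated diet (50 μg/cm^2) at 25° C, 14:10 L:D, with six-day mortality averaged over eight wells.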

[2] = test system: beet armyworm (BAW; Spodoptera exigua: Lepidoptera); assay: 96-well microtiter plate-based high throughput (HTS) diet bioassay on beet armyworm (BAW HTS); format: in vivo; conditions: for BAW HTS: BAW eggs, 12 μg test compound per well, mortality at 6 d post-treatment, mortality class
Method in brief: as §1

[3] = 96-well microtiter plate HTS diet assay

| SMILES | BAW 50 ug/cm2 [1] | BAW HTS ([2]; 96-well HTS diet assay) | BAW HTS [2, 3] | pest or weed control at 50 µg/cm2, 50 µg/cm2 ([1]; Spodoptera exigua, 144 h, read-out: BAW 50 ug/cm2) [%] | pest or weed control at 12 µg/well, 12 µg/well ([2]; Spodoptera exigua, 144 h, read-out: BAW HTS) [%] |
| --- | --- | --- | --- | --- | --- |
| CCO[C@@H]1[C@@H](OC)[C@H](C)O[C@@H](OC(=O)Nc2ccc(-n3c(C(=O)OC)nn(-c4ccc(OC(F)(F)F)cc4)c3=O)cc2)[C@@H]1OC [Compound 226] | B (either (1) the compound was tested and less than 50 percent mortality was observed or (2) the compound was not tested) | B (either (1) the compound was tested and less than 50 percent mortality was observed or (2) the compound was not tested) | B (either (1) the compound was tested and less than 50 percent mortality was observed or (2) the compound was not tested) |  |  |
| CCO[C@@H]1[C@@H](OC)[C@H](C)O[C@H](OC(=O)Nc2ccc(-n3c(C(=O)OC)nn(-c4ccc(OC(F)(F)F)cc4)c3=O)cc2)[C@@H]1OC [Compound 227] | B (either (1) the compound was tested and less than 50 percent mortality was observed or (2) the compound was not tested) | B (either (1) the compound was tested and less than 50 percent mortality was observed or (2) the compound was not tested) | B (either (1) the compound was tested and less than 50 percent mortality was observed or (2) the compound was not tested) |  |  |
| CCO[C@@H]1[C@@H](OC)[C@H](C)O[C@@H](OC(=O)Nc2ccc(-n3cnn(-c4ccc(OC(F)(F)F)cc4)c3=O)cc2)[C@@H]1OC [Compound 228] | B (either (1) the compound was tested and less than 50 percent mortality was observed or (2) the compound was not tested) | B (either (1) the compound was tested and less than 50 percent mortality was observed or (2) the compound was not tested) | B (either (1) the compound was tested and less than 50 percent mortality was observed or (2) the compound was not tested) |  |  |
| CO[C@@H]1[C@@H](OC)[C@H](C)O[C@@H](OC(=O)Nc2ccc(-n3cnc(-c4ccc(C(F)(F)F)cc4)n3)cc2)[C@@H]1OC [Compound 229] | A (the compound was tested and at least 50 percent mortality was observed) | A (the compound was tested and at least 50 percent mortality was observed) | A (the compound was tested and at least 50 percent mortality was observed) |  |  |
| CO[C@@H]1[C@@H](OC)[C@H](C)O[C@@H](OC(=O)Nc2ccc(-c3nnc(-c4ccc(Cl)cc4Cl)o3)cc2)[C@@H]1OC [Compound 230] | A (the compound was tested and at least 50 percent mortality was observed) | B (either (1) the compound was tested and less than 50 percent mortality was observed or (2) the compound was not tested) | B (either (1) the compound was tested and less than 50 percent mortality was observed or (2) the compound was not tested) |  |  |
| CO[C@@H]1[C@@H](OC)[C@H](C)O[C@@H](OC(=O)Nc2ccc(-c3ccnc(-c4ccc(C(F)(F)F)cc4)n3)cc2)[C@@H]1OC [Compound 232, {4-[2-(4-trifluoromethylphenyl)-pyrimidin-4-yl]-phenyl}-carbamic acid (2S,3R,4R,5S,6S)-3,4,5-trimethoxy-6-methyl-tetrahydropyran-2-yl ester] | A (the compound was tested and at least 50 percent mortality was observed) |  | A (the compound was tested and at least 50 percent mortality was observed) | > 50 | > 50 |
| CO[C@@H]1[C@@H](OC)[C@H](C)O[C@@H](OC(=O)Nc2ccc(-c3cc(C(F)(F)C(F)(F)C(F)(F)F)nc(-c4ccc(C(F)(F)F)cc4)n3)cc2)[C@@H]1OC [Compound 233] | A (the compound was tested and at least 50 percent mortality was observed) | B (either (1) the compound was tested and less than 50 percent mortality was observed or (2) the compound was not tested) | B (either (1) the compound was tested and less than 50 percent mortality was observed or (2) the compound was not tested) |  |  |
